Test results from US20220389477A1, “METHOD FOR EVALUATING ANTIBIOTIC SUSCEPTIBILITY” (Vrije Universiteit Brussel, priority 2019, published 2022).
In brackets after ≈: the same amount, converted by molar mass. Like-named read-outs stand apart in the source and are kept apart here.

Experiments:
Escherichia coli culture [1] = experiment: E-test; assay type: cell-based; conditions: culture EC/03D177
Escherichia coli culture [2] = experiment: Broth microdilution (BMD); assay type: cell-based; conditions: culture EC/03D177
Escherichia coli culture [3] = experiment: Optical third-derivative MIC method, culture in broth; assay type: cell-based; conditions: EC/03D177; for MIC: Escherichia coli
Description: The method of FIG. 1 starts at a time equal to zero, t0 (1). Preferably, said t0 is the moment a pure bacteria culture is finished being prepared. Alternatively, said t0 is the moment all wells contain both said bacteria culture and said antimicrobial drug. After the starting of the experiment each well is periodically illuminated with a light source and the intensity of the transmitted light is detected with a photodetector (2). Preferably, each well is illuminated and the intensity of the transmitted light is detected every hour (2). More preferably, each well is illuminated and the intensity of the transmitted light is detected every 5 to 15 min. After a predetermined time length, preferably after 4 hours, a first, a second and a third derivative of said measured intensity is calculated (3) in a first and a second time frame for each well. Preferably, said second time frame is the last measured time frame after the test has been running for said predetermined time length, and said first time frame is the time frame preceding the second time frame. More preferably, said first time frame is between two and three hours and said second time frame is between three and four hours. After the calculation of said derivatives, said first derivative in said second time frame of said reference well is compared to a growth speed threshold value (4). Preferably, said growth speed threshold value is 0.166 (4). If said first derivative in said second time frame of said reference well is larger than or equal to said growth speed threshold value said bacteria culture is classified as Type I (4). If said first derivative in said second time frame of said reference well is smaller than said growth speed threshold value said bacteria culture is classified as Type II (4). Subsequently, independent of the classification of the bacteria culture according to the two types, the method comprises the following steps which are performed for each well or for all wells except said reference well. Both said first and said second time frames are evaluated to see if there is an inflection point present in the second derivative in said first and/or said second time frame (5).
If said first and/or said second time frame comprise said inflection point than said third derivative in said first time frame is compared to said third derivative in said second time frame (6). If said third derivative in said first time frame is larger than said third derivative in said second time frame, then said first time frame and said second time frame are selected as a first and second time frame to be used in a minimal inhibitory concentration determination method (10). If said third derivative in said first time frame is not larger than said third derivative in said second time frame, then said well is illuminated again after a certain time period, preferably an hour, more preferably 5 to 15 min after said predetermined time length said, with a light source and the intensity of the transmitted light is detected with a photodetector forming a new time frame subsequent to said second time frame (7). A third derivative, and possibly also a first and/or a second derivative, is calculated in said new time frame (7). Further, in step (7) a new first time frame is put equal to said second time frame and a new second time frame to equal to said new time frame. Subsequently, said third derivative in said new first time frame is compared to said third derivative in said new second time frame (8). If said derivative in said new first time frame is larger than said third derivative in said new second time frame, then said new first time frame and said new second time frame are selected as a first and second time frame to be used in a minimal inhibitory concentration determination method (10). […]

E-coli = conditions: tabulated, known value, cited from earlier work

CC1(C)S[C@@H]2[C@H](NC(=O)[C@H](N)c3ccccc3)C(=O)N2[C@H]1C(=O)O [ampicillin]
MIC (Escherichia coli culture [1]; Escherichia coli): 2 µg/mL (≈ 5.72 µM)
HR? (E-test) (Escherichia coli culture [1]): no
MIC (Escherichia coli culture [2]): 4 µg/mL (≈ 11.4 µM)
heteroresistance determined by the method (Escherichia coli culture [3]; FIG. 5D, overall conclusion): not heteroresistant
HR? at MIC (25%) (Escherichia coli culture [3]; ratio MIC T2/T1): yes (If the ratio of the MIC value in the second time frame over the MIC value in the first time frame is higher than or equal to 8 then the ratio is labelled to be heteroresistant)
HR? at MIC (40%) (Escherichia coli culture [3]; ratio MIC T2/T1): no (If the ratio of the MIC value in the second time frame over the MIC value in the first time frame is lower than or equal to 4 then the ratio is labelled not to be heteroresistant)
HR? at MIC (60%) (Escherichia coli culture [3]; ratio MIC T2/T1): no (If the ratio of the MIC value in the second time frame over the MIC value in the first time frame is lower than or equal to 4 then the ratio is labelled not to be heteroresistant)
HR? at MIC (75%) (Escherichia coli culture [3]; ratio MIC T2/T1): no (If the ratio of the MIC value in the second time frame over the MIC value in the first time frame is lower than or equal to 4 then the ratio is labelled not to be heteroresistant)
MIC (Escherichia coli culture [3]; 3 h-4 h, read-out: MIC (25%) T1): 2 µg/mL (≈ 5.72 µM)
MIC (Escherichia coli culture [3]; 3 h-4 h, read-out: MIC (40%) T1): 2 µg/mL (≈ 5.72 µM)
MIC (Escherichia coli culture [3]; 3 h-4 h, read-out: MIC (60%) T1): 2 µg/mL (≈ 5.72 µM)
MIC (Escherichia coli culture [3]; 3 h-4 h, read-out: MIC (75%) T1): 2 µg/mL (≈ 5.72 µM)
MIC (Escherichia coli culture [3]; 4 h-5 h, read-out: MIC (25%) T2): 8 µg/mL (≈ 22.9 µM)
MIC (Escherichia coli culture [3]; 4 h-5 h, read-out: MIC (40%) T2): 2 µg/mL (≈ 5.72 µM)
MIC (Escherichia coli culture [3]; 4 h-5 h, read-out: MIC (60%) T2): 2 µg/mL (≈ 5.72 µM)
MIC (Escherichia coli culture [3]; 4 h-5 h, read-out: MIC (75%) T2): 2 µg/mL (≈ 5.72 µM)
MIC (Escherichia coli culture [3]; FIG. 5D, overall conclusion, read-out: MIC value determined by the method): 2 µg/mL (≈ 5.72 µM)
MIC for Ampiciline (E-coli; Colony ID. 03D161): 4 µg/mL
MIC for Ampiciline (E-coli; Colony ID. 03D177): 2 µg/mL
MIC for Ampiciline (E-coli; Colony ID. 03D179): > 32 µg/mL
